The text below walks through data of PMC9697187 (Viruses, 2022).

The subject of data set [1] is FIPV serotype I (Black I). As to the kind of experiment: Colorimetric CPE bioassay. The class given is cell-based, feline infectious peritonitis virus (FIPV). Conditions: for EC50: read-out: EC50 against Black I (serotype I FIPV).
In data set [2] the test system is FIPV serotype II (WSU-79-1146). Kind of data set: Combined anticoronaviral therapy. Conditions: WSU-79-1146, CRFK cells, alone and combined determined concurrently. The class given is cell-based, feline infectious peritonitis virus (FIPV).
In data set [3] the test system is FIPV II. Conditions: cited from earlier work.
For data set [4], the system named is feline infectious peritonitis (FIP). Conditions: cited from earlier work; for Cats clinically cured of FIP: retrospective study, treated with either GC376 or GS-441524.
A short description of data set [5]: in vivo. Also noted: species or system cat. Conditions: male; for Cmax: Cmax of GS-441524.
The subject of data set [6] is FIPV serotype II (WSU-79-1146). As to the kind of experiment: Colorimetric CPE bioassay. The data set is classed as cell-based, feline infectious peritonitis virus (FIPV). Conditions: for EC50: read-out: EC50 against WSU-79-1146 (serotype II FIPV).
Details of data set [7]: method as in not printed at the place. Conditions: read-out: Cmax of GS-441524; subcutaneously administered at 5 mg/kg, cats; ref not given; cited from earlier work.
Data set [8] can be described thus: Single dose pharmacokinetics of orally administered MPV in SPF cats. The class given is in vivo, cat.
Data set [9] deals with CEM/C1 human cell line. Particulars: cited from earlier work.
Data set [10] has as its system CRFK cells. Particulars: cited from earlier work.
[11] abbreviates: FCWF-4 CU cells, MOI 0.1, 72 h, monotherapy.
The mark [12] stands for this setting: clinical trial, naturally occurring FIP.
Where [13] appears, read: Alphacoronavirus 1, FCWF-4 CU cells, MOI 0.1, 72 h, monotherapy.
Setting [14] is: owner survey, unlicensed GS-441524.
Where [15] appears, read: Alphacoronavirus 1, read-out: EC50, combination experiment (A) nirmatrelvir and MPV.
[16] abbreviates: male, serum, po, 10 mg/kg, 10 mg/kg oral molnupiravir, mean of 3 cats.
The mark [17] stands for this setting: serum MPV, 10 mg/kg oral molnupiravir, mean of 3 cats, 10 mg/kg.
Where [18] appears, read: Alphacoronavirus 1, read-out: EC50, combination experiment (C) remdesivir and nirmatrelvir.
[19] abbreviates: Alphacoronavirus 1, CRFK cells, MOI 0.1, 72 h, monotherapy.

Where two headings read alike, the source gives them in different places.

A word on the EC50: it is the concentration that produces a half-maximal response. What is called Cmax is the highest concentration seen after dosing. Broadly, the half-life is how long it takes for the measured level to halve. The low end stands for rapid decline, the high end for slow decline. One may read the CL/F as the apparent clearance, not corrected for the fraction that reaches the circulation. The term MRT denotes the average time that molecules of a dose stay in the body. By AUC is commonly meant concentration integrated over time. Read a low AUC as less exposure. One may read the CC50 as the concentration giving 50% cytotoxicity.

`CC(C)C[C@H](NC(=O)OCc1ccccc1)C(=O)N[C@@H](CC1CCNC1=O)C(O)S(=O)(=O)O` (stereo partly shown) [GC376]: the EC50 was 0.01 µM in data set [1] (setting [11]); 0.406 µM in [2] (read-out: EC50, combination experiment (B) GC376 and remdesivir); 0.9 µM in data set [3] (prior study, read-out: EC50 against FIPV II).
With `CC(C)C[C@H](NC(=O)OCc1ccccc1)C(=O)N[C@@H](C[C@@H]1CCNC1=O)C(O)S(=O)(=O)[O-].[Na+]` (stereo partly shown) [GC376], the Cats in remission entry in [4] (setting [12]) was “seven of the 20”. Moreover, the “Cats clinically cured of FIP” value in data set [4] is on record as 29 of 30.
As for `N#C[C@@]1(c2ccc3c(N)ncnn23)O[C@H](CO)[C@@H](O)[C@H]1O` [GS-441524], the concentration for a half-maximal effect (EC50) was 0.02 µM in data set [1] (setting [13]); 0.78 µM in data set [3] (previously reported, read-out: EC50 against serotype II FIPV); 0.61 µM in [6] (Alphacoronavirus 1, CRFK, 72 h). For the same compound, in [4] (setting [12]), the “Cats healthy and disease free at the time of publication” value is 25 of 31. Besides, the “Cats with successful resolution of disease” value in data set [4] (neurological FIP, escalating dose) is listed as 3 of 4. In data set [4] (owner survey responses), the “Cats with neurological or ocular signs successfully treated” value is listed as 161 of 169. Also, the “Cats alive at the time of publication” value in data set [4] (owner survey, unlicensed GS-441524, n = 380) is reported as 96.7%. Also, in data set [4] (setting [14]), the Cats considered cured is reported as 54.0%. Moreover, in data set [4] (setting [14]), the “Cats still being monitored in the 12-week observation period” value is on record as 43.3%. Also, the “Cats clinically cured of FIP” value in [4] was 29 of 30. In [5] (cat, GS-441524 remaining in plasma 24 h post-treatment), this compound gave a concentration at 24 h of 0.22 to 2 µM. Further, the AUC(0-t) amounted to 45 µM·h in data set [5] (iv, 7 mg/kg, AUC0-24 of GS-441524) and 89.7 µg·h/mL in data set [5] (po, 25 mg/kg, AUC (AUC0-24) of GS-441524). Moreover, the Cmax in data set [5] (iv, 7 mg/kg) was 6.9 µM; in data set [5] (po, 25 mg/kg), 13.3 µg/mL; in [7], about 10 µM. In [5] (po, 25 mg/kg, T1/2 of GS-441524), the half-life was 4.5 h.
As for `CC(C)C(=O)OC[C@H]1O[C@@H](n2ccc(NO)nc2=O)[C@H](O)[C@@H]1O` [MPV, molnupiravir], the EC50 in [1] (setting [13]) was determined as 0.016 µM. Also, the EC50 in data set [2] (setting [15]) is 0.693 µM. For the same compound, the “Detection of MPV in serum over 24 h” value in data set [8] (10 mg/kg oral MPV) is “not detected after the 12-h time point”. Further, the “Peak detection time point in serum, aggregate of three cats” value in data set [8] (10 mg/kg oral MPV, Figure 3B) was “approximately 1.5 h”. In [8] (setting [16]), this compound gave a CL/F of 347 L/h/kg and an MRT of 4.6 h. Moreover, in [8] (male, serum, po, 10 mg/kg, 10 mg/kg oral molnupiravir, mean of 3 cats, read-out: AUC0-t of MPV), the AUC(0-t) came out at 0.085 µM·h. In [8] (male, serum, po, 10 mg/kg, 10 mg/kg oral molnupiravir, mean of 3 cats, read-out: Vz/F of MPV), the Vd/F worked out at 881 L/kg. In data set [8] (male, serum, po, 10 mg/kg, serum MPV, 10 mg/kg oral molnupiravir, individual cat), this compound registered an AUC of 0.0396 µg·h/mL. Moreover, the AUC(0-t) in data set [8] (male, serum, po, 10 mg/kg, serum MPV, 10 mg/kg oral molnupiravir, mean of 3 cats, read-out: AUC (AUC0-t) of MPV) stood at 0.0275 µg·h/mL. In data set [8] (setting [17]), the “AUC (AUC0-t) of MPV” value is 0.0275 µg·h/mL, the Cmax was 0.04 µM and the “Cmax of MPV” value came out at 0.0142 µg/mL. The 50% effective concentration (EC50) in data set [6] (Alphacoronavirus 1, CRFK, 72 h) stood at 0.7 µM.
For the compound `O=c1nc(NO)ccn1[C@@H]1O[C@H](CO)[C@@H](O)[C@H]1O` [NHC, β-D-N^4-hydroxycytidine], in [9], the CC50 was 7.5 µM. Further, the EC50 in [1] (setting [11]) was found to be 0.05 µM; in data set [6] (CRFK cells, MOI 0.1, 72 h, monotherapy), 0.11 µM. Moreover, the “EC50 against Black I expressed as” value in data set [1] (equivalent of 0.05 μM) turned out to be 0.0129 mg/L. Also, the “Serum exposure relative to the NHC EC50” value in data set [8] (in vivo) is given as “greater than the NHC EC50”. Besides, the “Kel of NHC” value in data set [8] (in vivo, po, 10 mg/kg) came to 0.2 h⁻¹. Besides, the “Cytotoxicity in CRFK cells” value in data set [10] is recorded as “cytotoxicity has also been documented”.
`CCC(CC)COC(=O)[C@H](C)N[P@](=O)(OC[C@H]1O[C@@](C#N)(c2ccc3c(N)ncnn23)[C@H](O)[C@@H]1O)Oc1ccccc1` [RDV, remdesivir]: the half-maximal effective concentration (EC50) in data set [1] (setting [13]) came out at 0.03 µM; in data set [2] (Alphacoronavirus 1, read-out: EC50, combination experiment (B) GC376 and remdesivir) it was 0.181 µM; in data set [2] (setting [18]) it was 6.42 µM; in data set [6] (setting [19]), 0.18 µM.
Take `CC(C)(C)[C@H](NC(=O)C(F)(F)F)C(=O)N1C[C@H]2[C@@H]([C@H]1C(=O)N[C@H](C#N)C[C@@H]1CCNC1=O)C2(C)C` [nirmatrelvir]: the EC50 in data set [1] (Alphacoronavirus 1, 72 h) was determined as 0.016 µM; in data set [2] (setting [15]), 1.31 µM; in data set [2] (setting [18]), 2.94 µM; in [6] (setting [19]), 1.31 µM. Further, in data set [6] (Black I vs WSU-79-1146), the “Differential efficacy, EC50 for FIPV I relative to FIPV II” value is about 100 fold.
